Experimental data: ChEMBL document CHEMBL1201862, “PubChem BioAssay data set” (2004)
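Compound exposure: 48 hours, 5 concentrations, 96-well plates. GI50 marks 50% less growth.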 Calls of active or inactive are those of the source. Cut-off read from the data, not from the text of the source: active = GI50 up to about 1.1 µM and inactive = higher.

Legend:
Assay in all cases: NCI tumour cell line growth inhibition, 48 h
[1] = tested on: HOP-18
[2] = tested on: M19-MEL
[3] = tested on: DLD-1
[4] = tested on: KM-20L2
[5] = tested on: DMS-273
[6] = tested on: XF498
[7] = tested on: SNB-78
[8] = tested on: LXFL 529
[9] = tested on: RXF 631

| Compound | GI50 [1] | GI50 [2] | GI50 [3] | GI50 [4] | GI50 [5] | GI50 [6] | GI50 [7] | GI50 [8] | GI50 [9] |
| --- | --- | --- | --- | --- | --- | --- | --- | --- | --- |
| CCOC(=O)CCC(NC(=O)c1ccc(/N=C/c2nc3cc(C(F)(F)F)ccc3nc2-c2ccccc2)cc1)C(=O)OCC (stereo not drawn) | > 100 µM (inactive) | > 50 µM (inactive) | > 50 µM (inactive) | > 50 µM (inactive) | > 100 µM (inactive) | 2.81 µM (inactive) | 10 µM (inactive) | 43.1 µM (inactive) |  |
| Cc1cc(O)nc(NN2C(Cl)C(=O)C2c2ccccc2O)n1 (stereo not drawn) | 1.6 µM (inactive) | 3.84 µM (inactive) |  | 10.7 µM (inactive) | 1.96 µM (inactive) |  | 24.3 µM (inactive) | 2.62 µM (inactive) |  |
| CC1CC2C3CC(F)C4=CC(=O)C=CC4(C)C3(F)C(O)CC2(C)C1(O)C(=O)CO (stereo not drawn) |  | > 100 µM (inactive) | > 100 µM (inactive) | > 100 µM (inactive) | > 100 µM (inactive) | > 100 µM (inactive) | > 100 µM (inactive) |  | > 100 µM (inactive) |
| COC(=O)c1c/c(=N\NC(=O)CC(=O)Nc2ccccc2OC)c2ccccc2o1 | 15.2 µM (inactive) | > 100 µM (inactive) | > 100 µM (inactive) | > 100 µM (inactive) | > 100 µM (inactive) |  | > 100 µM (inactive) | > 100 µM (inactive) |  |
| O=C1CC(c2ccc(Cl)cc2)=Nc2ccccc2N1 | 40.9 µM (inactive) | > 100 µM (inactive) | > 100 µM (inactive) | > 100 µM (inactive) | 79.1 µM (inactive) |  | 86.7 µM (inactive) | > 100 µM (inactive) | 74.6 µM (inactive) |
| N=C(N)n1ncc(Cl)c(Cl)c1=O | 1.38 µM (inactive) | 1.69 µM (inactive) | 2.38 µM (inactive) | 4.33 µM (inactive) | 2.28 µM (inactive) | 1.81 µM (inactive) | 1.98 µM (inactive) | 1.8 µM (inactive) | 1.81 µM (inactive) |
| CC1CC[C@]2(C(=O)O)CCC3(COC(=O)/C=C\c4ccc(O)cc4)C(=CCC4[C@@]5(C)CC[C@H](O)C(C)(C)C5CC[C@]43C)[C@@H]2[C@H]1C (stereo partly drawn) | 27.5 µM (inactive) | 21.7 µM (inactive) | 10.8 µM (inactive) | 18.4 µM (inactive) | 20.3 µM (inactive) |  | > 100 µM (inactive) | 22.7 µM (inactive) | 24.4 µM (inactive) |
| C/C(=N\Nc1ccc([N+](=O)[O-])cc1)C(=O)N(C)Nc1ccccc1 | > 100 µM (inactive) | 69.5 µM (inactive) | > 100 µM (inactive) | 60.4 µM (inactive) | 69.8 µM (inactive) | 63.1 µM (inactive) |  | 52.6 µM (inactive) |  |
| CN(C)CCNc1ccc2ncn3c4ccccc4c(=O)c1c23 | 1.17 µM (inactive) | 2.96 µM (inactive) | 1.96 µM (inactive) | 2.13 µM (inactive) |  |  | 3.04 µM (inactive) | 2.7 µM (inactive) |  |
| O=C(Nc1ccc(Cl)c(Cl)c1)C1C(=O)N(c2ccc(Cl)c(Cl)c2)C(=O)/C1=N\O (stereo not drawn) | > 100 µM (inactive) | 31.8 µM (inactive) | > 100 µM (inactive) | 43.5 µM (inactive) | > 100 µM (inactive) |  | > 100 µM (inactive) | > 100 µM (inactive) |  |
| CN(C)C[C@H]1CC[C@@H](CN(C)C)C1=O | 8.02 µM (inactive) | 8.83 µM (inactive) | 3.94 µM (inactive) | 11.2 µM (inactive) | 8.71 µM (inactive) | 8.28 µM (inactive) | 10.3 µM (inactive) | 6.18 µM (inactive) |  |
| CC12CCC[C@@](C)(C(=O)OC3OC(CO)C(O)C(O)C3O)[C@H]1CCC13CC4CC(OC4(CO)[C@H]1O)[C@@H]23 (stereo partly drawn) | > 100 µM (inactive) | > 100 µM (inactive) | > 100 µM (inactive) | > 100 µM (inactive) | > 100 µM (inactive) | > 100 µM (inactive) | > 100 µM (inactive) | > 100 µM (inactive) | > 100 µM (inactive) |
| COC(=O)C(Cc1nc2ccccc2nc1O)C(NO)C(=O)Nc1c(Cl)cc([N+](=O)[O-])cc1Cl (stereo not drawn) |  |  | 28.9 µM (inactive) |  |  |  | 40.8 µM (inactive) |  |  |
| NC(=O)c1c2c(cc3c(=O)c4ccccc4[nH]c13)CCCC2 | > 100 µM (inactive) | > 100 µM (inactive) | > 73.1 µM (inactive) | > 100 µM (inactive) | > 100 µM (inactive) | > 100 µM (inactive) |  | > 100 µM (inactive) | > 100 µM (inactive) |
| C/C(=N\N=C(/[SeH])N1CC2CCC(CC2)C1)c1ccccn1 | 0.294 µM (active) | 0.0449 µM (active) | < 0.01 µM (active) | < 0.01 µM (active) | 0.0136 µM (active) | < 0.01 µM (active) | 0.216 µM (active) | < 0.01 µM (active) | 0.4 µM (active) |
| O=C(CN(c1ccccc1)c1ccccc1)N1c2ccccc2C2C=CC=CC21 (stereo not drawn) | 25.6 µM (inactive) | 21.5 µM (inactive) | 25.6 µM (inactive) | 24.2 µM (inactive) | 22 µM (inactive) | 19.6 µM (inactive) | 36.8 µM (inactive) | 16 µM (inactive) |  |
| CC(=O)NC1=C(NCCC(C)C)C(=O)c2ccccc2C1=O |  | > 50 µM (inactive) | > 50 µM (inactive) | > 50 µM (inactive) | > 50 µM (inactive) | > 50 µM (inactive) | > 50 µM (inactive) | > 50 µM (inactive) |  |
| COc1ccc(/C=c2/sc3n(c2=O)NC2(CCCCC2)NN=3)cc1 |  | > 100 µM (inactive) | > 100 µM (inactive) | > 100 µM (inactive) | > 100 µM (inactive) | > 100 µM (inactive) | > 100 µM (inactive) | > 100 µM (inactive) |  |
| Cc1cccc(C)c1NC(=O)CCC(=O)NNc1nnc(C)n1N | > 100 µM (inactive) | > 100 µM (inactive) | > 100 µM (inactive) | > 100 µM (inactive) | > 100 µM (inactive) | > 100 µM (inactive) | > 100 µM (inactive) | > 100 µM (inactive) | > 100 µM (inactive) |
| NC(=O)c1ccc(Cl)c([N+](=O)[O-])c1 | > 100 µM (inactive) | > 100 µM (inactive) | > 100 µM (inactive) | > 100 µM (inactive) | > 100 µM (inactive) | > 100 µM (inactive) | > 100 µM (inactive) | > 100 µM (inactive) |  |
| CCOC(=O)C1N(S(=O)(=O)c2ccc(C)cc2)CCC12c1ccccc1N(C(C)=O)C2C(/C=C/C(=O)OC)=C/C(=O)OC (stereo not drawn) |  | > 100 µM (inactive) | > 100 µM (inactive) | > 100 µM (inactive) | 89.9 µM (inactive) | > 100 µM (inactive) | > 100 µM (inactive) | > 100 µM (inactive) |  |
| N#Cc1ccc(OCCSCCCCCCCCCCSCCOc2ccc(C#N)cc2)cc1 | > 100 µM (inactive) | > 100 µM (inactive) |  | > 100 µM (inactive) |  |  | > 100 µM (inactive) | > 100 µM (inactive) |  |
| COC(=O)C1=CC2OC1(C)C1(CC1)C2=O (stereo not drawn) |  | 21 µM (inactive) | 14.3 µM (inactive) | 17.5 µM (inactive) | > 10 µM (inactive) | 14.7 µM (inactive) |  | 18.5 µM (inactive) |  |
| COC1(OC)CCCCC2c3cccc(OC(C)=O)c3C21OC(C)=O (stereo not drawn) | > 100 µM (inactive) | > 100 µM (inactive) | > 100 µM (inactive) |  | > 100 µM (inactive) | 29.2 µM (inactive) | > 100 µM (inactive) | > 100 µM (inactive) |  |
| C=CCO/N=C(\OC(=O)c1ccc([N+](=O)[O-])cc1)c1ccccc1 | > 100 µM (inactive) | > 100 µM (inactive) | > 100 µM (inactive) |  | > 100 µM (inactive) |  | > 100 µM (inactive) | > 100 µM (inactive) | > 100 µM (inactive) |
| N#CC(C(=O)CCC(=O)C(C#N)c1ccccc1)c1ccccc1 (stereo not drawn) | > 100 µM (inactive) | > 100 µM (inactive) | > 100 µM (inactive) |  | > 100 µM (inactive) | > 100 µM (inactive) | > 100 µM (inactive) | > 100 µM (inactive) |  |
| CC1(C)CC(=O)C(=[N+]=[N-])C(=O)C1 |  |  | > 100 µM (inactive) | > 100 µM (inactive) |  | > 100 µM (inactive) |  | > 100 µM (inactive) |  |
| COC(=O)C1C(=O)N(CCc2c[nH]c3ccccc23)C[C@@H]2CCC(=O)C[C@H]12 (stereo partly drawn) |  | > 100 µM (inactive) | > 100 µM (inactive) |  | > 100 µM (inactive) | > 100 µM (inactive) | > 100 µM (inactive) | > 100 µM (inactive) | > 100 µM (inactive) |
